Assay results reported in patent US8048874B2, “Beta-lactamyl phenylalanine, cysteine, and serine vasopressin antagonists” (Azevan Pharmaceuticals, Inc., priority 2005, dated 2011).

What was measured:
[1] = target: T1, human V1a receptors (Homo sapiens, UniProt P37288); experiment: Human vasopressin V1a cell-based receptor binding assay (3H-AVP competition)
T1 construct: expressed in transfected cells; host or cells: CHO cells
Description: Human or rat vasopression V1a, V1b, and/or V2 cell-based receptor binding assay. The V1a, V1b, and/or V2 cell lines (cells expressing either the human or rat V1a, V1b, and/or V2 receptors) were grown in alpha-MEM medium supplemented with 10% fetal bovine serum and 250 ug/ml G418 (Gibco, Grand Island, N.Y.) in 75 cm^2 flask. For competitive binding assay, hV1b cells were dissociated with enzyme-free, PBS based cell dissociation solution (Specialty Media, Phillipursburg, N.J.), following the manufacturer's protocol. Cells were plated into 12-well culture plates at a rate of one flask to 18 plates (rate should be adjusted according to the extent of confluency), and maintained in culture for 2-3 days. Culture medium was then removed, cells were washed once with 2 ml binding buffer (25 mM Hepes, 0.25% BSA, 1×DMEM, PH=7.0) at room temperature. To each well, 990 ul binding buffer containing 1 nM ^3H-AVP was added, and followed by the addition of 10 ul series diluted testing compounds or cold AVP, all dissolved in DMSO. […] Cells were incubated for 30 min at 37° C. in a moisturized incubator. Assay mixture was then removed and each well was washed three times with PBS (pH=7.4). […] Samples were counted in a liquid scintillation counter (Beckman LS3801). IC50 and Ki values were calculated using Prism Curve fitting software. […]

[2] = target: T2, human V1b receptors (Homo sapiens, UniProt P47901); experiment: Human vasopressin V1b cell-based receptor binding assay (3H-AVP competition); details: cells expressing human V1b receptor, 1 nM 3H-AVP
T2 construct: expressed in transfected cells
T2 sequence (P47901 1-424): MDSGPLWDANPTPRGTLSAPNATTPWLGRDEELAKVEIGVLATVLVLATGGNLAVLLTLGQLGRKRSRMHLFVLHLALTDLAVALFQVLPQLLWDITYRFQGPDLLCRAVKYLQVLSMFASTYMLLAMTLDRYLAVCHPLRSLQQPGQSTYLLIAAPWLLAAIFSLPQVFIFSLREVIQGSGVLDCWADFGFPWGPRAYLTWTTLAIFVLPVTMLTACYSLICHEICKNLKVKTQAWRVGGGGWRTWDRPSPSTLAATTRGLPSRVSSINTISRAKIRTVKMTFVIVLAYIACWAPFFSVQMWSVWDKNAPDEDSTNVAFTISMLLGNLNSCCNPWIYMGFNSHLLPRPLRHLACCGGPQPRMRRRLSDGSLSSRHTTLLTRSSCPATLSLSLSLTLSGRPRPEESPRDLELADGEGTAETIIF
Excerpt: Human vasopression VIb receptor-expressing cells. Human vasopressin receptor 1B (HV1B) cDNA (see, Lolait et al., “Extrapituitary expression of the rat V1b vasopressin receptor gene” Proc. Natl. Acad. Sci. USA. 92:6783-7 (1995); de Keyzer et al., “Cloning and characterization of the human V3(V1b) pituitary vasopressin receptor” FEBS Lett. 356:215-20 (1994); Sugimoto et al., “Molecular cloning and functional expression of a cDNA encoding the human V1b vasopressin receptor” J. Biol. Chem. 269:27088-92 (1994)) was inserted into a mammalian cell expression vector PCI-neo (Promega) at EcoR1 site. The recombinant plasmid carrying HV1B cDNA was identified from transformed E. Coli clones and used for the transfection of Chinese hamster ovary cell (CHO-K1, ATCC). Two micrograms of HV1B receptor DNA was introduced into 10^5 CHO cells cultured in 6-well plate, using Fugene-6 mediated transfection technique (Boehringer Mannheim). Twenty-four hrs post transfection, Cells were then cultured under selection of G-418 (0.25 mg/ml) supplemented to the culture medium. Three days later, limited dilution was carried out to obtain single cell clones in 96-well plates. […]
Human or rat vasopression V1a, V1b, and/or V2 cell-based receptor binding assay. […] Samples were counted in a liquid scintillation counter (Beckman LS3801). IC50 and Ki values were calculated using Prism Curve fitting software. […]

T1 sequence (P37288 whole entry): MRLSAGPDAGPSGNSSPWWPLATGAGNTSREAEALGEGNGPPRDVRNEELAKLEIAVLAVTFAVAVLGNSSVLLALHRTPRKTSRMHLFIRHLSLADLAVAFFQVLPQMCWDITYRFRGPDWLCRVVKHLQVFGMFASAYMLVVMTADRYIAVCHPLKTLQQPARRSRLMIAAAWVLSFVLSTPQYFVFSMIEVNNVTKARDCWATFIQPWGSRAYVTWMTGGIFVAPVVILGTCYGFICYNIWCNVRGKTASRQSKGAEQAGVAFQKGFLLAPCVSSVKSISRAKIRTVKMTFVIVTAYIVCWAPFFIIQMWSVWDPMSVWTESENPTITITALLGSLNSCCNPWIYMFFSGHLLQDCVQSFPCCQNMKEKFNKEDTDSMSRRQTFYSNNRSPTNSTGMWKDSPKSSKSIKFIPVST

Structure (SMILES): O=C(C(CSCc1ccccc1)N1C(=O)C(N2C(=O)OCC2c2ccccc2)C1C=Cc1ccccc1)N1CCC(CCN2CCCCC2)CC1 [Example 9B, (2S)-(Benzylthiomethyl)-2-[3(S)-(4(S)-phenyloxazolidin-2-on-3-yl)-4(R)-(2-styryl)azetidin-2-on-1-yl]acetic acid N-[4-[2-(piperid-1-yl)ethyl]piperidin-1-yl]amide]
- Ki ([1]; FIG. 1, competitive binding assay in CHO cells transfected with human V1a receptor, read-out: human V1b binding affinity (Ki)): 0.07 nM
- IC50 ([1]; cells expressing human V1a receptor, 1 nM 3H-AVP, read-out: Human V1a Binding Affinity (IC50 (nM))): 0.11 nM
- IC50 ([2]; read-out: Human V1b Binding Affinity (IC50 (μM))): 1.1 µM
- Ki ([2]; read-out: Human V1b Binding Affinity (Ki (μM))): 0.69 µM
